Experimental data taken from patent publication US6372727B1, “Metalloporphyrin treatment of neurologic disease” (UAB Research Foundation, priority 1999, dated 2002).

Legend:
[1] = MP-catalyzed peroxynitrite decomposition monitored at 302 nm; type: biochemical; settings: for Rate Constants for MP-Catalyzed Decomposition of Peroxynitrite (pH 7.4, 37° C.): 100 μM peroxynitrite, absence of added reductants
Experimental: Peroxynitrite (100 μM) was added to rapidly stirred cuvettes at 37° C. containing the indicated concentrations of MPs in 0.1 M potassium phosphate, pH 7.4. Ascorbate was added to 150 μM where indicated. Peroxynitrite decomposition was monitored at 302 nm using a Hewlett-Packard diode-array spectrophotometer. Apparent rates (kapparents^−1, average of n=3) were plotted versus MP concentration to determine rate constants in M^−1s^−1.
Reactions contained the indicated concentration of FeTCPPin 1.4 ml of 0.1 M potassium phosphate, pH 7.4 in the absence or presence to 150 μM ascorbic acid. Peroxynitrite (100 μM) was added to rapidly stirred cuvettes at 37° C. and the decay of peroxynitrite was monitored continuously at 302 nm. Decay data were fitted to the equation describing first order decay to obtain apparent decay rates (kapparent sec^−1). Apparent decay rates as a function of FeTCPP were fitted by linear regression and the rate constant was obtained slope of the line.
Peroxynitrite (100 μM) decomposition was determined at 302 nm using a Hewlett-Packard diode-array spectrophotometer fitted with a temperature-controlled cuvette chamber and a water-driven cuvette stirrer. Bolus additions of peroxynitrite were made to vigorously stirred cuvettes containing varying concentrations of MPs (see Table III) while data were collected at a rate of ten points/sec. […] Each reaction was repeated three times and only the first additions of peroxynitrite were averaged. Data were exported for fitting and plotting. Apparent rates of peroxynitrite decomposition were plotted as a function of metalloporphyrin concentration (as shown in FIG. 5) to determine concentration-independent rate constants at 37° C.
Rates of peroxynitrite (100 μM) decomposition were determined at different MP concentrations. Ascorbate was added to 150 μM where indicated. […] Apparent rate constants were plotted versus MP concentration (as in FIG. 5A,B) to determine true rate constants in M^−1s^−1±standard error.

[2] = Peroxynitrite-mediated nitration of GYA peptide; type: biochemical; settings: 2 mM GYA; for effect on nitration: 10 μM MP, pH 7.4; for enhancement of nitration yield: 10 μM MP or SOD subunit, 1 mM CO2, pH 7.4, 37° C.
Experimental: Nitration efficiency, defined as the moles of nitrated GYA peptide formed per mole of peroxynitrite added, was determined at a fixed concentration of 10 μM MP or Cu,Zn SOD subunit, or 1 mM CO2 as described below. Increasing amounts of peroxynitrite were added in a sequential manner in order to determine whether nitration efficiency varied with concentration and to determine whether nitration catalysis was maintained with multiple additions (see INSET). Nitration efficiency was calculated for each peroxynitrite addition; the values shown are the average of all nine peroxynitrite additions. Absorbance changes were monitored simultaneously at 380, 430, and 460 nm.
(§1) For nitration of GYA peptide (see FIG. 6), reaction solutions contained 2 mM GYA and 10 μM of the indicated MP in 1.4 ml of 0.1 M potassium phosphate, pH 7.4 at 37° C. Comparisons with two previously characterized nitration catalysts, human Cu,Zn superoxide dismutase (hCu,Zn SOD) and carbon dioxide, were made using 10 μM of SOD subunit and 25 mM potassium bicarbonate, respectively, which was pH-adjusted to 7.4. This level of bicarbonate results in rapid saturation of the solution with carbon dioxide (˜1 mM). Solutions were placed into a rapidly stirred cuvette and nine bolus additions (50 μM×3, 100 μM×3, and 200 μM×3) of peroxynitrite were made sequentially while the absorbance was monitored. Increasing amounts of peroxynitrite were added in a sequential manner in order to determine whether nitration efficiency varied with concentration and to determine whether nitration catalysis was maintained with multiple additions (see FIG. 6 inset). Nitration efficiency was defined as the amount of nitropeptide formed per amount of peroxynitrite added and was calculated for each peroxynitrite addition; the values shown are the average of all nine peroxynitrite additions. The absorbance changes associated with nitrotyrosine peptide production were monitored simultaneously at 380, 430, and 460 nm. The extinction coefficients for nitrated GYA at pH 7.4 are 4,400 M^−1cm^−1 at 430 nm and 2,200 M^−1cm^−1 at both 380 and 460 nm. […] Wavelengths used to quantify nitrotyrosine production were chosen to minimize interference by the particular metalloporphyrin used. Experiments using HPA as a nitration target (FIG. 7) contained 8 mM HPA in either 0.1 M potassium phosphate, pH 7.4 or 0.1 M sodium borate, pH 9.1.
The relative abilities of several MPs to enhance nitration of the tripeptide GYA was compared using 10 μM MP and sequential bolus additions of 50 μM (×3), 100 μM (×3), and 200 μM (×3)peroxynitrite (FIG. 6, inset).

[3] = tested on: ALS-SOD1 (G93A) transgenic mice; assay: Survival of ALS-SOD1 (G93A) transgenic mice; type: in vivo; settings: G93A mutant of Cu,Zn superoxide dismutase transgene
Experimental: FIG. 13A: Transgenic mice (n=9) were injected intraperitoneally with 3 mg/kg/day of a low molecular weight (844.6) synthetic iron porphyrin. […] Treatment was continued until such time that signs of diaphragm weakness (labored breathing) necessitated sacrifice. A control group of transgenic mice was treated with vehicle only (phosphate-buffered saline). FIG. 13B: Transgenic mice were injected intraperitoneally with 1 mg/kg/day of a low molecular weight (844.6) synthetic iron porphyrin. Treatment began at day 60 prior to the onset of symptoms. A control group of transgenic mice was treated with vehicle only (phosphate-buffered saline).
Mice transgenic for the G93A mutated form of SOD1 are generally accepted as the standard model of motor neuron disease. […] This compound extended the mean survival time by 13 days (from 127 to 140 days) (FIG. 13A).
A group of G93A mice was treated with 1 mg/kg of FeTCPP intraperitoneally beginning at 60 days of age. As with the control group in FIG. 13A, none of the control group in this test survived past 132 days. However, the probability of survival at 140 days was about 37% and at approximately 180 days survival was still at 20%.

cultured motor neurons = assay: Protection of cultured motor neurons from growth factor withdrawal; type: cell-based; settings: for level of protection compared with FeTCPP: 72 hr after trophic factor deprivation
Experimental: Culture Motor neurons were prepared from embryonic day 15 (E15) rat spinal cords by a combination of metrizamide gradient centrifugation and immunopanning with the monoclonal antibody IgG192 (Chandler et al., J. Biol. Chem. 259:6882-6889, 1984) as previously described (Estevez et al., J Neurosci 18:923-931, 1998; Henderson C E, Bloch-Gallego E, Camu W (1995): Purification and culture of embryonic motorneurons. In Cohen J, Wilkin G (eds): Neural Cell Culture: A Practical Approach. Oxford, England: IRL Press, pp 69-81). Long-term cultures of motor neurons were performed as described by Pennica et al. (Pennica et al., Neuron 17:63-74, 1996). Briefly, motor neurons were plated at a density of 200 cells/cm2 on 35 mm dishes precoated with polyornithine-laminin in Neurobasal medium supplemented with B27 (Life Technologies, Grand Island, N.Y.), 2% horse serum, 0.5 mM L-glutamine, 25 μM 2-mercaptoethanol and 25 μM L-glutamate. Every 3-4 days ¾ of the culture medium was replaced by fresh medium lacking L-glutamate and containing sufficient quantities of BDNF or FeTCPP to supplement the 2 ml of medium in the dish. More than 94% of the cells were immunoreactive for the p75 low-affinity neurotrophic receptor (p75NTR) and Islet ½, which are markers for motor neurons. The experiments were repeated at least 2 times using the same lot of Neurobasal medium and B 27 supplement.
The number of motor neurons with neurites longer than 4 soma diameters present in parallel cultures treated with BDNF at a final concentration of 100 pg/ml 24 h after plating or culture media replacement was considered 100% motor neuron survival. FeTCPP was resuspended in complete Neurobasal medium at a 5 mM concentration. Dilutions were performed of the stock solution to add 20 μl per dish.
Rat motor neurons survive many days in culture when brain-derived neurotrophic factor (BDNF) is added to the culture media. Because motor neurons are the cells that preferentially die in ALS, primary cultures of motor neurons represent the best non-animal model of ALS. Withdrawal of BDNF results in apoptotic death of >70% of motor neurons within 24 h. Cell death was correlated with expression of the neuronal form of nitric oxide synthase (nNOS) and the production of peroxynitrite, as evidenced by protein tyrosine nitration. When FeTCPP is added to the culture media in place of BDNF and motor neuron survival is assessed at 24 h, some protection is seen at concentrations as low as 0.01 μM (FIG. 10A). […] Additionally, a comparison of the effect of FETCPP and its tetra-methyl ester derivative, TMeO-FeTCPP, on motor neuron survival at 72 hr.

[4] = MP-catalyzed nitration of HPA: effect of pH, reductants and serum; type: biochemical
Experimental: Single additions of 100 μM peroxynitrite were made to reactions containing ascorbate or GSH. Three sequential additions of 100 μM peroxynitrite were made to all other reactions.
as §1, with “This” for “For nitration of GYA peptide (see FIG. 6), reaction solutions contained 2 mM GYA and 10 μM of the indicated MP in 1.4 ml of 0.1 M potassium phosphate, pH 7.4 at 37° C. Comparisons with two previously characterized nitration catalysts, human Cu,Zn superoxide dismutase (hCu,Zn SOD) and carbon dioxide, were made using 10 μM of SOD subunit and 25 mM potassium bicarbonate, respectively, which was pH-adjusted to 7.4. This”

[5] = Ascorbate oxidation by MPs monitored at 266 nm; type: biochemical; settings: MP 10 μM, 50 μM ascorbate, 0.1 M potassium phosphate pH 7.4, ± standard error, n=3
Experimental: In order to test the hypothesis that Mn(II)- or Fe(II)-porphyrins would be capable of carrying out two-electron reductions of peroxynitrite and thereby decreasing rather than increasing its reactivity, attempts were made to pre-reduce these transition metal-containing MPs prior to addition of peroxynitrite.
Table V. Ascorbate oxidation by MPs. MPs (10 μM) were added to stirred cuvettes containing 0.1 M potassium phosphate, pH 7.4 and 50 μM ascorbate. Ascorbate oxidation was monitored at 266 nm (ηm=17,700 M^−1cm^−1). Oxidation rates (±standard errors) were determined by fitting the initial linear portion of each curve and averaging the rates (n=3).

## O=C(O)c1ccc(-c2c3nc(c(-c4ccc(C(=O)O)cc4)c4ccc([n-]4)c(-c4ccc(C(=O)O)cc4)c4nc(c(-c5ccc(C(=O)O)cc5)c5ccc2[n-]5)C=C4)C=C3)cc1.[Zn+2] [ZnTBAP, Zinc (II) tetra-(4-benzoic acid)-porphyrin]
[1]
  Rate Constants for MP-Catalyzed Decomposition of Peroxynitrite (pH 7.4, 37° C.): 5.3 × 10^3 ± 0.3 M^−1s^−1
[2]
  effect on nitration: small but reproducible inhibitory effect

## O=C1O[C@H]([C@@H](O)CO)C(O)=C1O [ascorbate, ascorbic acid]
[1]; ascorbate alone 150 μM, no MP
  acceleration of peroxynitrite decomposition: 16%

## O=C=O [carbon dioxide]
[2]
  enhancement of nitration yield: 1.7 fold

## Copper (II) meso-tetra-(4-sulfonatophenyl)-porphyrin [CuTSPP]
[2]
  effect on nitration: small but reproducible inhibitory effect

## Iron (III) meso 5,10,15,20-tetrakis-(4-carboxymethyl-phenyl) porphyrin [FeTMeO-TCPP]
[3]
  progression of motor neuron death in mice: slow the progression of motor neuron death
Cultured motor neurons
  survival of cultured motor neurons deprived of growth factors: prolong survival of cultured motor neurons
Cultured motor neurons; 0.01 μM
  level of protection compared with FeTCPP: twice the level of protection
Cultured motor neurons; 0.1 μM
  level of protection compared with FeTCPP: slightly greater level of protection

## Iron (III) meso-tetra-(4-sulfonatophenyl)-porphyrin [FeTSPP]
[4]; 8 mM HPA, 10 μM MP, 0.1 M sodium borate pH 9.1, versus non-catalyzed
  enhancement of nitration yield at pH 9.1: 2.8 fold
[4]; concentrations which eliminated non-catalyzed nitration
  effect of ascorbate and GSH on nitration enhancement: largely prevented the enhancement of nitration
[4]; fresh human serum 1:10 added prior to peroxynitrite
  effect of serum on nitration enhancement: largely eliminated the nitration enhancement
[1]
  Rate Constants for MP-Catalyzed Decomposition of Peroxynitrite (pH 7.4, 37° C.): 3.3 × 10^5 ± 0.4 M^−1s^−1
[5]
  Rate of Ascorbate Oxidation: 4.58 ± 0.21 µM/min
[2]
  enhancement of nitration yield: 5.3 fold

B1: BDNF: brain-derived neurotrophic factor (protein, UniProt P23560 19-247, looked up)
Neurotrophic factor BDNF …: APMKEANIRGQGGLAYPGVRTHGTLESVNGPKAGSRGLTSLADTFEHVIEELLDEDQKVRPNEENNKDADLYTSRVMLSSQVPLEPPLLFLLEEYKNYLDAANMSMRVRRHSDPARRGELSVCDSISEWVTAADKKTAVDMSGGTVTVLEKVPVSKGQLKQYFYETKCNPMGYTKEGCRGIDKRHWNSQCRTTQSYVRALTMDSKKRIGWRFIRIDTSCVCTLTIKRGR
Cultured motor neurons; long-term culture in the presence of BDNF
  motor neurons that die between day 8 and day 16: 80%
